Reference: patent US20140288044A1, “COMPOSITIONS AND THERAPEUTIC USES OF IKK-RELATED KINASE EPSILON AND TANKBINDING KINASE 1 INHIBITORS” (Alzheimer's Institute of America, Inc., priority 2011, published 2014)
Like-named read-outs stand apart in the source and are kept apart here.

Biological target: T1, IKKε (Homo sapiens, UniProt Q14164)
T1 construct: His-tag (in-house Sf9 preparation) or GST-tag (purchased Invitrogen preparation); these are alternatives, not both on one protein; host or cells: Sf9 cells
T1 sequence (Q14164 1-716): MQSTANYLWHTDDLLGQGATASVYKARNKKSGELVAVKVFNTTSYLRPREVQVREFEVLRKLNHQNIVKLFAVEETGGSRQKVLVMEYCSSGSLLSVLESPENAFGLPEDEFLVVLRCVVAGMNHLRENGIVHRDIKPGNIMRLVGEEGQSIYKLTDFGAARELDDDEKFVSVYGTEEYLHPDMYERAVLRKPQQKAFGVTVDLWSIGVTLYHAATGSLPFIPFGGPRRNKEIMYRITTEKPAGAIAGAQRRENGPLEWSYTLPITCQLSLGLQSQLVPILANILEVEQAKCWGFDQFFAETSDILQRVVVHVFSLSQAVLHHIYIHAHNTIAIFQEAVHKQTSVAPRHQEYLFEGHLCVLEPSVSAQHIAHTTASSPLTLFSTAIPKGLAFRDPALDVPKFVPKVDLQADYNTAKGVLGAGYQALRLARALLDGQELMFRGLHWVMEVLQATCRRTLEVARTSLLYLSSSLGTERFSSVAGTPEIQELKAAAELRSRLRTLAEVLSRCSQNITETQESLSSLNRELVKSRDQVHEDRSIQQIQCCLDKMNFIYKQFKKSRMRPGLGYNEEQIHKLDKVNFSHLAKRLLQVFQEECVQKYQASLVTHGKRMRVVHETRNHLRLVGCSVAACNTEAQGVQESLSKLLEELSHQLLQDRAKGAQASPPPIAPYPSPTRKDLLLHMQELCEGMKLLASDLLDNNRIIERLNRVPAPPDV
Assay: In-vitro IKKε kinase assay (radiolabelled ATP, filterplate)
Assay type: biochemical
Description: IKKε enzyme was produced as a His-tag fusion in Sf9 cells or purchased as a GST-tag fusion (Invitrogen, Carlsbad, Calif.). TBK1 enzyme was produced as a His-tag fusion in Sf9 cells. Kinase reactions were carried out in reaction buffer using myelin basic protein (Millipore, Ballerica, Mass.), casein or dephosphorylated casein (Sigma, St. Louis, Mo.) as substrate at an ATP concentration equal to twice the Km,ATP value for each enzyme, corresponding to 32 μM ATP for IKKε and 60 μM ATP for TBK1. Radiolabelled [γ^33]ATP (PerkinElmer, Waltham, Mass.) in the amount of […] (IKKe, “normal”) or 0.7 μCi (IKKε, “sensitized”) or 1.25 μCi (TBK1) was added to each assay. Final enzyme concentrations were 0.1 or 0.015 μg/ml (IKKε) and 0.1 or 0.02 μg/ml (TBK1) for the “normal” and “sensitized” assay, respectively, and “sensitized” assays were conducted using only dephosphorylated casein as substrate. Test compounds (or DMSO solvent as a control) were added prior to initiation of the reactions. Reactions were terminated after 30-45 minutes by adding 3% phosphoric acid. Terminated reactions were transferred to P-81 cellulose phosphate filterplates (Whatman, Inc., Piscataway, N.J.) and washed with 1% phosphoric acid on a vacuum apparatus. After air drying, scintillant (PerkinElmer, Waltham, Mass.) was added and the plates were read on a PerkinElmer TopCount NXT instrument. Counts were normalized to DMSO controls after background subtraction.

[1] = "sensitized" assay, read-out: IC50, inhibition of the kinase activity of IKKε
[2] = in-vitro IKKε kinase inhibition assays, given as 0.005 μM (5 nM), read-out: IKKε kinase inhibitory activity (IC50 value)

SMILES	IC50 [2]	IC50 [1]
Cn1cc(-c2ccc(Nc3nccc(-c4ccc(OC5CCOCC5)c(C#N)c4)n3)cn2)cn1 [Example Compound 189, 5-(2-{[6-(1-Methyl-1H-pyrazol-4-yl)pyridin-3-yl]amino}pyrimidin-4-yl)-2-(tetrahydro-2H-pyran-4-yloxy)benzonitrile]		< 5 nM
N#Cc1cc(-c2ccnc(Nc3ccc(-n4ccnc4)nc3)n2)ccc1OC1CCOCC1 [Example Compound 200, 5-(2-{[6-(1H-Imidazol-1-yl)pyridin-3-yl]amino}pyrimidin-4-yl)-2-(tetrahydro-2H-pyran-4-yloxy)benzonitrile]		< 5 nM
COC1CCN(c2cc(Nc3nccc(-c4ccc(OC5CCOCC5)c(C#N)c4)n3)ccn2)C1 (stereo not shown) [Example Compound 39, 5-(2-{[2-(3-Methoxypyrrolidin-1-yl)pyridin-4-yl]amino}pyrimidin-4-yl)-2-(tetrahydro-2H-pyran-4-yloxy)benzonitrile]	< 5 nM	< 5 nM
N#Cc1cc(-c2ccnc(Nc3ccnc(N4CC(O)C4)c3)n2)ccc1OCC1CC1 [Example Compound 241, 2-(Cyclopropylmethoxy)-5-(2-{[2-(3-hydroxyazetidin-1-yl)pyridin-4-yl]amino}pyrimidin-4-yl)benzonitrile]		< 5 nM
N#Cc1cc(-c2ccnc(Nc3cncc(CN4CCOCC4)c3)n2)ccc1OC1CCOCC1 [Example Compound 21, 5-(2-{[5-(Morpholin-4-ylmethyl)pyridin-3-yl]amino}pyrimidin-4-yl)-2-(tetrahydro-2H-pyran-4-yloxy)benzonitrile]	< 5 nM	
CC(c1ccc(Nc2nccc(-c3ccc(OC4CCOCC4)c(C#N)c3)n2)cn1)N1CC(O)C1 (stereo not shown) [Example Compound 214, 5-[2-({6-[1-(3-Hydroxyazetidin-1-yl)ethyl]pyridin-3-yl}amino)pyrimidin-4-yl]-2-(tetrahydro-2H-pyran-4-yloxy)benzonitrile]		< 5 nM
N#Cc1cc(-c2ccnc(Nc3ccnc(N4CCC[C@@H]4CO)c3)n2)ccc1OC1CCOCC1 [Example Compound 194, 5-[2-({2-[(2R)-2-(Hydroxymethyl)pyrrolidin-1-yl]pyridin-4-yl}amino)pyrimidin-4-yl]-2-(tetrahydro-2H-pyran-4-yloxy)benzonitrile]		< 5 nM
COC1CN(c2cc(Nc3nccc(-c4ccc(OCC5CC5)c(C#N)c4)n3)ccn2)C1 [Example Compound 248, 2-(Cyclopropylmethoxy)-5-(2-{[2-(3-methoxyazetidin-1-yl)pyridin-4-yl]amino}pyrimidin-4-yl)benzonitrile]		< 5 nM
COCCNc1ncc(-c2ccc(Nc3nccc(-c4ccc(OC5CCOCC5)c(C#N)c4)n3)cn2)cn1 [Example Compound 187, 5-{2-[(6-{2-[(2-Methoxyethyl)amino]pyrimidin-5-yl}pyridin-3-yl)amino]pyrimidin-4-yl}-2-(tetrahydro-2H-pyran-4-yloxy)benzonitrile]		< 5 nM
N#Cc1cc(-c2ccnc(Nc3ccnc(CN4CC(O)C4)c3)n2)ccc1OC1CCOCC1 [Example Compound 218, 5-[2-({2-[(3-Hydroxyazetidin-1-yl)methyl]pyridin-4-yl}amino)pyrimidin-4-yl]-2-(tetrahydro-2H-pyran-4-yloxy)benzonitrile]		< 5 nM
Cc1cc(Nc2nccc(-c3ccc(O[C@@H]4CCN(C(=O)CO)C4)c(C#N)c3)n2)ccn1 [Example Compound 223, 2-{[(3R)-1-(Hydroxyacetyl)pyrrolidin-3-yl]oxy}-5-{2-[(2-methylpyridin-4-yl)amino]pyrimidin-4-yl}benzonitrile]		< 5 nM
COCCNc1cc(Nc2nccc(-c3ccc(OCC4CC4)c(C#N)c3)n2)ccn1 [Example Compound 245, 2-(Cyclopropylmethoxy)-5-[2-({2-[(2-methoxyethyl)amino]pyridin-4-yl}amino)pyrimidin-4-yl]benzonitrile]		< 5 nM
Cc1ccc(Nc2nccc(-c3ccc(NC(=O)C4CC4)c(C#N)c3)n2)cn1 [Example Compound 149, N-(2-Cyano-4-{2-[(6-methylpyridin-3-yl)amino]pyrimidin-4-yl}phenyl)cyclopropanecarboxamide]	< 5 nM	< 5 nM
CN(Cc1ccc(Nc2nccc(-c3ccc(OC4CCOCC4)c(C#N)c3)n2)cn1)C(=O)CO [Example Compound 195, N-{[5-({4-[3-Cyano-4-(tetrahydro-2H-pyran-4-yloxy)phenyl]pyrimidin-2-yl}amino)pyridin-2-yl]methyl}-2-hydroxy-N-methylacetamide]		< 5 nM
N#Cc1cc(-c2ccnc(Nc3ccc(/C=C/CN4CCOCC4)nc3)n2)ccc1OC1CCOCC1 [Example Compound 190, 5-[2-({6-[(1E)-3-(Morpholin-4-yl)prop-1-en-1-yl]pyridin-3-yl}amino)pyrimidin-4-yl]-2-(tetrahydro-2H-pyran-4-yloxy)benzonitrile]		< 5 nM

Further lines, with some results ahead:

IC50 [2]	SMILES	IC50 [1]
< 5 nM	CN(Cc1ccc(Nc2nccc(-c3ccc(OC4CCOCC4)c(C#N)c3)n2)cn1)C(=O)C(C)(C)O [Example Compound 56, N-{[5-({4-[3-Cyano-4-(tetrahydro-2H-pyran-4-yloxy)phenyl]pyrimidin-2-yl}amino)pyridin-2-yl]methyl}-2-hydroxy-N,2-dimethylpropanamide]	
< 5 nM	COc1cncc(Nc2nccc(-c3ccc(OC4CCOCC4)c(C#N)c3)n2)c1 [Example Compound 27, 5-{2-[(5-Methoxypyridin-3-yl)amino]pyrimidin-4-yl}-2-(tetrahydro-2H-pyran-4-yloxy)benzonitrile]	< 5 nM
< 5 nM	N#Cc1cc(-c2ccnc(Nc3ccc(C(=O)N4CCC4)nc3)n2)ccc1OC1CCOCC1 [Example Compound 30, 5-(2-{[6-(Azetidin-1-ylcarbonyl)pyridin-3-yl]amino}pyrimidin-4-yl)-2-(tetrahydro-2H-pyran-4-yloxy)benzonitrile]	< 5 nM
< 5 nM	N#Cc1cc(-c2ccnc(Nc3cncc(C(=O)NCCO)c3)n2)ccc1OC1CCOCC1 [Example Compound 13, 5-({4-[3-Cyano-4-(tetrahydro-2H-pyran-4-yloxy)phenyl]pyrimidin-2-yl}amino)-N-(2-hydroxyethyl)pyridine-3-carboxamide]	
< 5 nM	CCN(CC)c1ccc(Nc2nccc(-c3ccc(OC4CCOCC4)c(C#N)c3)n2)cn1 [Example Compound 9, 5-(2-{[6-(Diethylamino)pyridin-3-yl]amino}pyrimidin-4-yl)-2-(tetrahydro-2H-pyran-4-yloxy)benzonitrile]	< 5 nM
< 5 nM	CN(C)c1ccc(-c2ccc(Nc3nccc(-c4ccc(OC5CCOCC5)c(C#N)c4)n3)cn2)cn1 [Example Compound 81, 5-(2-{[6′-(Dimethylamino)-2,3′-bipyridin-5-yl]amino}pyrimidin-4-yl)-2-(tetrahydro-2H-pyran-4-yloxy)benzonitrile]	< 5 nM
< 5 nM	N#Cc1cc(-c2ccnc(Nc3ccc(N4CC(O)C4)nc3)n2)ccc1OC1CCOCC1 [Example Compound 46, 5-(2-{[6-(3-Hydroxyazetidin-1-yl)pyridin-3-yl]amino}pyrimidin-4-yl)-2-(tetrahydro-2H-pyran-4-yloxy)benzonitrile]	
< 5 nM	COC(=O)c1ccc(Nc2nccc(-c3ccc(OC4CCOCC4)c(C#N)c3)n2)cn1 [Example Compound 33, Methyl 5-({4-[3-cyano-4-(tetrahydro-2H-pyran-4-yloxy)phenyl]pyrimidin-2-yl}amino)pyridine-2-carboxylate]	< 5 nM
< 5 nM	COCCNCc1cncc(Nc2nccc(-c3ccc(OC4CCOCC4)c(C#N)c3)n2)c1 [Example Compound 22, 5-{2-[(5-{[(2-Methoxyethyl)amino]methyl}pyridin-3-yl)amino]pyrimidin-4-yl}-2-(tetrahydro-2H-pyran-4-yloxy)benzonitrile]	
